These results are taken from article PMC10845205, “Discovery of novel antibacterial agent for the infected wound treatment: all-hydrocarbon stapling optimization of LL-37” (Theranostics, 2024).

In one series the test system is K. pneumoniae. The note with it: CLSI broth microdilution, MH-II broth, 24 h 37 °C, AlamarBlue; ATCC 13883; 3 independent measurements. Here is the method:
(§1) According to the protocol of Clinical & Laboratory Standards Institute, the minimum inhibitory concentration (MIC) of the linear and stapled peptides against a panel of gram-positive and gram-negative bacteria was determined by the broth microdilution method. […]
(§2) Bacterial strains and culture
(§3) Bacterial type stains ATCC 25923 S. aureus, ATCC 12228 S. epidermidis, ATCC […]
(§4) aeruginosa and ATCC 13883 K. pneumoniae were obtained from Shanghai Bioresource Collection Center. The bacterial culture medium was purchased from Oxoid and autoclaved according to the instructions from manufacturer. The isolated strains were cultured in Mueller Hinton II broth and continuously shaken at 140 rpm for 18 hours to the middle of the exponential growth phase at 37 °C with an OD value of 0.4-0.5.
(§5) Bacterial suspensions with an OD value of 0.1, approximately […], were then diluted for further assays.
(§6) The minimal inhibition concentration (MIC) of the linear and stapled peptides was determined using the microbroth dilution method from the Clinical and Laboratory Standards Institute (CLSI)[2, 3]. Bacterial suspensions of 10 6 CFU/mL were prepared in MH-II broth and peptide solutions at varying concentrations were prepared in phosphate buffer saline (PBS). Then 50 μL peptide solution and 50 μL bacterial suspension were mixed in a 96 -well plate. Plates were incubated for 24 hours at 37 °C.
(§7) 10 μL AlamarBlue cell viability reagent (ThermoFisher Scientific, UK) was added to each well, then the plate was re -incubated for a further 2 hours at 37 °C. The MIC was recorded as the minimum concentration of peptides required to completely in hibit bacteria growth. For serum stability assessment, the peptide solutions were pre - incubated with 50% human serum for 4 h before the MIC determination. Experiments were performed in 3 independent measurements. […]

Another series relates to S. epidermidis. The note with it: CLSI broth microdilution, MH-II broth, 24 h 37 °C, AlamarBlue; ATCC 12228; 3 independent measurements. Here is the method:
as §1, §2, §3, §4, §5, §6, §7

Another series deals with E. faecalis. The note with it: CLSI broth microdilution, MH-II broth, 24 h 37 °C, AlamarBlue; ATCC 29212; 3 independent measurements. Here is the method:
as §1, §2, §3, §4, §5, §6, §7

Another series deals with A. baumannii. The note with it: CLSI broth microdilution, MH-II broth, 24 h 37 °C, AlamarBlue; ATCC 19606; 3 independent measurements. The method, then:
as §1, §2, §3, §4, §5, §6, §7

In another series the test system is E. coli. The note with it: CLSI broth microdilution, MH-II broth, 24 h 37 °C, AlamarBlue; ATCC 25922; 3 independent measurements. The method, then: as §1, §2, §3, §4, §5, §6, §7
The next series has as its system S. aureus. The note with it: CLSI broth microdilution, MH-II broth, 10^6 CFU/mL, 24 h 37 °C, AlamarBlue; ATCC 25923; 3 independent measurements. The method, then: as §1, §2, §3, §4, §5, §6, §7
The test system of a further series is P. aeruginosa. The note with it: CLSI broth microdilution, MH-II broth, 24 h 37 °C, AlamarBlue; ATCC 27853; 3 independent measurements. The method, then:
as §1, §2, §3, §4, §5, §6, §7

Series [1] can be described thus: Hydrophobicity by RP-HPLC retention time. The series is classed as physicochemical. The note with it: chromatographic, reverse-phase C18 column, CH3CN/H2O containing 0.1%TFA from 10% to 90% over 20 min, UV 220 nm. The source says: To uncover the structure-activity relationship of KR-12 and its stapled derivatives, their physicochemical properties in terms of hydrophobicity, net charge and α-helicity were investigated (Table 2).

For a further series, the system named is NIH-3T3 cell. The conditions noted are these: CCK-8, 24 h incubation, nonlinear regression, 3 independent measurements. Here is the method: For development of the stapled KR-12 derivatives to treat bacterial infections in vivo, their cytotoxicity was examined via the CCK-8 assay, which could provide a quantitative assessment of cell viability based on the dehydrogenase activity. The mouse embryonic fibroblast NIH-3T3 cell was selected and incubated with various concentrations of KR-12 and its stapled derivatives.
Mouse embryonic fibroblast cells NIH-3T3 and mouse monocyte macrophage leukemia cells RAW264.7 were obtained from Shanghai Institute of Biochemistry and Cell Biology, Chinese Academy of Sciences. These two cells were maintained in DMEM and RPMI-1640, respectively. Both media were supplemented with 10% FBS and 1% 100 U/mL penicillin-streptomycin solution. Cells were maintained at 37 °C in a 5% CO2 and humidified incubator. Replace the culture medium every day until the cell grows to confluence. Cells were then treated with 0.25% trypsin–EDTA and split using fresh medium for either passage or analysis.
CCK-8 cell counting kit was utilized to examine the cytotoxicity of the linear and stapled peptides. NIH-3T3 cell was planked at a density of 1.5×10^4 cell/well in a 96 - well plate and incubated it for 24 hours at 37 °C. Cells were then treated with different concentrations of peptides in fresh DMEM and incubated for 24 hours before the addition of 10 μL CCK -8 and incubation for a further 1 hour. Measure the absorbance at 450nm using a microplate reader (BioTek, USA) and calculate the percentage of cell viability as: cell viability (%) = (Abspeptide-Absblank)/(Abscontrol-Absblank)×100%, where Abscontrol is the absorbance of cells treated with PBS and Abs blank is the absorbance of the cell-free medium. The data was fitted using the nonlinear regression within

Another series in a line: Serum stability assay. Format: in vitro ADME, human. The note with it: human serum, 2 mg/mL peptide in pH 7.4 PBS mixed with serum 1:4, 37 °C, up to 48 h, RP-HPLC UV 220 nm, 3 independent measurements. The source says: Maintaining high stability and presenting high compatibility in the complex physiological environment are important criterions for the clinical translation of AMPs. […] The derivatives were mixed with human serum in pH 7.4 PBS, simulating the degradation process of peptides by proteases in vivo. The percentages of intact derivatives were monitored and determined with time according to the PR-HPLC. […]
Serum stability of the linear and stapled peptides was examined by RP -HPLC as previously described. 2 mg/mL peptide solution was prepared in pH 7.4 PBS and incubated with human serum (Gemini, USA) to the final volume ratio of 1:4 at 37 °C.
At various time intervals, 50 μL mixture was added to 50 μL ethanol to terminate the enzymatic hydrolysis. After centrifugation at 10,000 rpm for 10 minutes under 4 °C, […]
the supernatant was collected and analyzed by RP-HPLC, with a UV detector monitored at 220 nm. Record the peak area of the intact peptide and calculate the percentage of remaining peptide based on the integrated area as, Peptide remaining (%) = peak area of remaining peptide/peak area of intact peptide×100%. […]

Structures are written as SMILES. ≈ marks a conversion by molar mass, not a printed value. Positions of bridges follow the written chain, without caps; N, C: chain ends. Non-standard residues stand in square brackets, D forms with d. Residues, ends and D or L forms follow the SMILES beside them. S5 = C=CCCC[C@](C)(N)C(=O)O Some results are limits rather than exact numbers.

For the molecule `CC[C@H](C)[C@H](NC(=O)[C@H](CCCNC(=N)N)NC(=O)[C@H](CCCCN)NC(C)=O)C(=O)N[C@H](C(=O)N[C@@H](CCC(N)=O)C(=O)N[C@@H](CCCNC(=N)N)C(=O)N[C@H](C(=O)N[C@@]1(C)CCCC=CCCC[C@@](C)(C(N)=O)NC(=O)[C@H](CC(C)C)NC(=O)[C@H](Cc2ccccc2)NC(=O)[C@H](CC(=O)O)NC1=O)[C@@H](C)CC)C(C)C` [KR-12 (K8, R12)] (Ac-KRIVQRI[S5]DFL[S5]-NH2; staple 8-12), in the series on K. pneumoniae, the “MIC K. pneumoniae” value is greater than 256 µg/mL. Moreover, the “MIC S. epidermidis” value in the series on S. epidermidis was determined as 16 µg/mL (≈ 10.1 µM). In addition, the “MIC E. faecalis” value in the series with E. faecalis was 16 µg/mL (≈ 10.1 µM). Moreover, the “MIC A. baumannii” value against A. baumannii is 16 µg/mL (≈ 10.1 µM). Besides, in the series on E. coli, the “MIC E. coli” value is 64 µg/mL (≈ 40.5 µM). In the series with S. aureus, the “MIC S. aureus” value is 16 µg/mL (≈ 10.1 µM). In addition, the “MIC P. aeruginosa” value against P. aeruginosa was determined as 256 µg/mL (≈ 162 µM). Besides, the “TR (retention time, measure of hydrophobicity)” value in series [1] is 18.2 min. Further, the “IC50 against NIH-3T3 cell” value in the series with NIH-3T3 cell was determined as 52.8 µg/mL (≈ 33.4 µM). Further, the “TD50 (time at which 50% of the peptide is degraded in the presence of serum)” value in the series “Serum stability assay” is 18.28 h.
